Tests used:
Format in all cases: cell-based
[1] = system: MRC-5 cell line; experiment: Cell viability assay for MRC-5 cell line (EZ-Cytox); details: for IC50: Homo sapiens, MRC5, 120 h, MRC-5 normal cell line, 5 days, 10000 nM to 1.52 nM, N.D. = no cytotoxicity until 10 μM, read-out: Activity: IC50 value of Exemplary Compound to MRC-5 cell line
Protocol: 4. Cell Viability Assay for MRC-5 Cell Line
(1) Culture of MRC-5 Cell Line
Passage of cultured cells was maintained within P15.
(2) Treatment of Compounds of the Present Invention
Then, it was cultured in 37° C.
(3) Cytotoxicity Experiment
CO2 incubator for 4 hours.

[2] = system: NCI-H526 cell line; experiment: Cell viability assay for H526 cell (EZ-Cytox); details: Homo sapiens, NCI-H526, 120 h; H526 cells, 5 days, 3000 nM to 0.46 nM
Protocol: (1) Culture of NCI-H526 Cell Line
(2) Treatment of Compounds of the Present Invention and Method of Cell Viability Assay
After treating the compound to each well to make the total volume of 200 μL, it was cultured in a CO2 incubator (Thermo Fisher Science, Cat. No. 4111) for 5 days.
The absorbance of the completely cultured sample was measured by setting the wavelength of a plate reader (BMG Labtech, CLARIOstar Plus) to […], and was measured after shaking for 3 minutes in a plate reader before measurement.
In Table 3, Activity represents IC50 value of each Exemplary Compound treatment group to H526 cell line (A: <30 nM, B: <50 nM, C: <100 nM, D: <200 nM, E: <400 nM).

[3] = molecular target: T1, PLK1 (Homo sapiens, UniProt P53350); experiment: Luciferase assay for PLK1 in HeLa LgBit (Plk1-HiBit KI) cell line; details: 300 nM compound, luminescence after 9 hours
T1 construct: endogenous in cells; host or cells: HeLa LgBit (Plk1-HiBit KI): HeLa stably expressing LgBit, with a CRISPR/Cas9 knock-in of HiBit at the endogenous PLK1 locus
T1 sequence (P53350 whole entry): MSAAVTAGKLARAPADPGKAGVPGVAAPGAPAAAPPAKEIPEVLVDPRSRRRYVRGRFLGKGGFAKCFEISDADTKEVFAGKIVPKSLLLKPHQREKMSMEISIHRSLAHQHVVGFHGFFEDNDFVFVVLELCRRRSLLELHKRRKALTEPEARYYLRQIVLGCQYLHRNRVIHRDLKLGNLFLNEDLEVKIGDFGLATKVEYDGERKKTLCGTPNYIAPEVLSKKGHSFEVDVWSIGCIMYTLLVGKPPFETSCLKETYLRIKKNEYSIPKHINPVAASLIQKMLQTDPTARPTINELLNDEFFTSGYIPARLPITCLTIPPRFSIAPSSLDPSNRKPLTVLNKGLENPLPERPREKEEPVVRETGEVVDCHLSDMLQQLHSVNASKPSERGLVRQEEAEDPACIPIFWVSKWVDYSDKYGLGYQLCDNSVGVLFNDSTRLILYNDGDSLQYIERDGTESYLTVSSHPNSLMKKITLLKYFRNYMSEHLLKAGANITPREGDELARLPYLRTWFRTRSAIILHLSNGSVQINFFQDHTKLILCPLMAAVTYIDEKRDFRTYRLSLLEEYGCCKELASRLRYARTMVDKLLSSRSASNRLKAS
Outline: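 Luminescence, followed in real time after adding compound at 300 nM and Endurazine substrate, is reported relative to DMSO-treated wells. Cells are a HeLa LgBit line with a Plk1-HiBit knock-in, synchronized by 2 mM thymidine for 24 h, released, and cultured 18 h before treatment.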

Compound	IC50 [1]	IC50 [2]	Activity: ratio of the luminescense value of each Exemplary Compound treatment group to DMSO treatment group [3]	cytotoxicity in normal cell line ([1]; MRC-5, in words)
C=C[C@@]1(F)CN(C2CCCC2)c2nc(Nc3ccc(C(=O)NC4CCN(C(=O)CCN5CCN(c6cccc7c6C(=O)N(C6CCC(=O)NC6=O)C7=O)CC5)CC4)cc3OC)ncc2N(C)C1=O (single isomer, unassigned) [Compound 108]	> 10000 nM	< 100 nM	++ (++<0.6)	
CC[C@@H]1C(=O)N(C)c2cnc(Nc3ccc(C(=O)NCCOCCOCCNc4cccc5c4C(=O)N(C4CCC(=O)NC4=O)C5=O)cc3OC)nc2N1C1CCCC1 (stereo partly shown) [Comparative Compound 1, reference compound]				exhibited a high level of cytotoxicity in normal cell line
COc1cc(C(=O)N[C@H]2CCN(CCOc3cccc4c3C(=O)N(C3CCC(=O)NC3=O)C4=O)C2)ccc1Nc1ncc2c(n1)N(C1CCCC1)CC(F)(F)C(=O)N2C (stereo partly drawn) [Compound 9, 4-((9-cyclopentyl-7,7-difluoro-5-methyl-6-oxo-6,7,8,9-tetrahydro-5H-pyrimido[4,5-b][1,4]diazepin-2-yl)amino)-N-((3S)-1-(2-((2-(2,6-dioxopiperidin-3-yl)-1,3-dioxoisoindolin-4-yl)oxy)ethyl)pyrrolidin-3-yl)-3-methoxybenzamide]	> 10000 nM		++ (++<0.6)	
CN1C(=O)C(F)(F)CN(C2CCCC2)c2nc(Nc3ccc(C(=O)NC4CCN(C(=O)CCCNc5cccc6c5C(=O)N(C5CCC(=O)NC5=O)C6=O)CC4)cc3OC(F)(F)F)ncc21 (stereo not shown) [Compound 28, 4-((9-cyclopentyl-7,7-difluoro-5-methyl-6-oxo-6,7,8,9-tetrahydro-5H-pyrimido[4,5-b][1,4]diazepin-2-yl)amino)-N-(1-(4-((2-(2,6-dioxopiperidin-3-yl)-1,3-dioxoisoindolin-4-yl)amino)butanoyl)piperidin-4-yl)-3-(trifluoromethoxy)benzamide]	> 10000 nM		++ (++<0.6)	
COc1cc(C(=O)NC2CCCN(C(=O)CN3CCN(c4cccc5c4C(=O)N(C4CCC(=O)NC4=O)C5=O)CC3)C2)ccc1Nc1ncc2c(n1)N(C1CCCC1)CC(F)(F)C(=O)N2C (stereo not shown) [Compound 122, 4-((9-cyclopentyl-7,7-difluoro-5-methyl-6-oxo-6,7,8,9-tetrahydro-5H-pyrimido[4,5-b][1,4]diazepin-2-yl)amino)-N-(1-(2-(4-(2-(2,6-dioxopiperidin-3-yl)-1,3-dioxoisoindolin-4-yl)piperazin-1-yl)acetyl)piperidin-3-yl)-3-methoxybenzamide]		< 30 nM	+++ (+++: <0.3)	
COc1cc(C(=O)NC2CCN(C(=O)CN3CCN(c4ccc5c(c4)C(=O)N(C4CCC(=O)NC4=O)C5=O)CC3)CC2)ccc1Nc1ncc2c(n1)N(C1CCCC1)CC(F)(F)C(=O)N2C (stereo not shown) [Compound 127, 4-((9-cyclopentyl-7,7-difluoro-5-methyl-6-oxo-6,7,8,9-tetrahydro-5H-pyrimido[4,5-b][1,4]diazepin-2-yl)amino)-N-(1-(2-(4-(2-(2,6-dioxopiperidin-3-yl)-1,3-dioxoisoindolin-5-yl)piperazin-1-yl)acetyl)piperidin-4-yl)-3-methoxybenzamide]		< 100 nM	++ (++<0.6)	
COc1cc(C(=O)NC2CCN(CC3CN(c4ccc5c(c4)C(=O)N(C4CCC(=O)NC4=O)C5=O)C3)CC2)ccc1Nc1ncc2c(n1)N(C1CCCC1)CC(F)(F)C(=O)N2C (stereo not shown) [Compound 134, 4-((9-cyclopentyl-7,7-difluoro-5-methyl-6-oxo-6,7,8,9-tetrahydro-5H-pyrimido[4,5-b][1,4]diazepin-2-yl)amino)-N-(1-((1-(2-(2,6-dioxopiperidin-3-yl)-1,3-dioxoisoindolin-5-yl)azetidin-3-yl)methyl)piperidin-4-yl)-3-methoxybenzamide]		< 30 nM	+++ (+++: <0.3)	
COc1cc(C(=O)NC2CCN(CC3CN(c4cccc5c4C(=O)N(C4CCC(=O)NC4=O)C5=O)C3)CC2)ccc1Nc1ncc2c(n1)N(C1CCCC1)CC(F)(F)C(=O)N2C (stereo not shown) [Compound 135, 4-((9-cyclopentyl-7,7-difluoro-5-methyl-6-oxo-6,7,8,9-tetrahydro-5H-pyrimido[4,5-b][1,4]diazepin-2-yl)amino)-N-(1-((1-(2-(2,6-dioxopiperidin-3-yl)-1,3-dioxoisoindolin-4-yl)azetidin-3-yl)methyl)piperidin-4-yl)-3-methoxybenzamide]		< 50 nM	+++ (+++: <0.3)	
COc1cc(C(=O)NC2CCCN(C(=O)N3CCN(c4cccc5c4C(=O)N(C4CCC(=O)NC4=O)C5=O)CC3)C2)ccc1Nc1ncc2c(n1)N(C1CCCC1)CC(F)(F)C(=O)N2C (stereo not shown) [Compound 145, 4-((9-cyclopentyl-7,7-difluoro-5-methyl-6-oxo-6,7,8,9-tetrahydro-5H-pyrimido[4,5-b][1,4]diazepin-2-yl)amino)-N-(1-(4-(2-(2,6-dioxopiperidin-3-yl)-1,3-dioxoisoindolin-4-yl)piperazine-1-carbonyl)piperidin-3-yl)-3-methoxybenzamide]		< 50 nM	+++ (+++: <0.3)	
COc1cc(C(=O)N[C@@H]2CCCN(C(=O)CN3CCN(c4cccc5c4C(=O)N(C4CCC(=O)NC4=O)C5=O)CC3)C2)ccc1Nc1ncc2c(n1)N(C1CCCC1)CC(F)(F)C(=O)N2C (stereo partly drawn) [Compound 146, 4-((9-cyclopentyl-7,7-difluoro-5-methyl-6-oxo-6,7,8,9-tetrahydro-5H-pyrimido[4,5-b][1,4]diazepin-2-yl)amino)-N-((3R)-1-(2-(4-(2-(2,6-dioxopiperidin-3-yl)-1,3-dioxoisoindolin-4-yl)piperazin-1-yl)acetyl)piperidin-3-yl)-3-methoxybenzamide]		< 50 nM	+++ (+++: <0.3)	
COc1cc(C(=O)N[C@H]2CCCN(C(=O)CN3CCN(c4cccc5c4C(=O)N(C4CCC(=O)NC4=O)C5=O)CC3)C2)ccc1Nc1ncc2c(n1)N(C1CCCC1)CC(F)(F)C(=O)N2C (stereo partly drawn) [Compound 147, 4-((9-cyclopentyl-7,7-difluoro-5-methyl-6-oxo-6,7,8,9-tetrahydro-5H-pyrimido[4,5-b][1,4]diazepin-2-yl)amino)-N-((3S)-1-(2-(4-(2-(2,6-dioxopiperidin-3-yl)-1,3-dioxoisoindolin-4-yl)piperazin-1-yl)acetyl)piperidin-3-yl)-3-methoxybenzamide]		< 50 nM	+++ (+++: <0.3)	
COc1cc(C(=O)N2CCC(N3CCC(C#Cc4ccc5c(c4)C(=O)N(C4CCC(=O)NC4=O)C5=O)CC3)CC2)ccc1Nc1ncc2c(n1)N(C1CCCC1)CC(F)(F)C(=O)N2C (stereo not shown) [Compound 182, 5-((1′-(4-((9-cyclopentyl-7,7-difluoro-5-methyl-6-oxo-6,7,8,9-tetrahydro-5H-pyrimido[4,5-b][1,4]diazepin-2-yl)amino)-3-methoxybenzoyl)-[1,4′-piperidin]-4-yl)ethynyl)-2-(2,6-dioxopiperidin-3-yl)isoindoline-1,3-dione]	9750 nM		++ (++<0.6)	
COc1cc(C(=O)N2CCC(N3CCN(CCOCCCNc4cccc5c4C(=O)N(C4CCC(=O)NC4=O)C5=O)CC3)CC2)c(F)cc1Nc1ncc2c(n1)N(C1CCCC1)CC(F)(F)C(=O)N2C (stereo not shown) [Compound 190, 4-((3-(2-(4-(1-(4-((9-cyclopentyl-7,7-difluoro-5-methyl-6-oxo-6,7,8,9-tetrahydro-5H-pyrimido[4,5-b][1,4]diazepin-2-yl)amino)-2-fluoro-5-methoxybenzoyl)piperidin-4-yl)piperazin-1-yl)ethoxy)propyl)amino)-2-(2,6-dioxopiperidin-3-yl)isoindoline-1,3-dione]		< 30 nM	++ (++<0.6)	
COc1cc(C(=O)NN2CCC(N3CC4(CCN(c5cccc6c5CN(C5CCC(=O)NC5=O)C6=O)CC4)C3)CC2)ccc1Nc1ncc2c(n1)N(C(C)C)CC(F)(F)C(=O)N2C (stereo not shown) [Compound 218, 4-((7,7-difluoro-9-isopropyl-5-methyl-6-oxo-6,7,8,9-tetrahydro-5H-pyrimido[4,5-b][1,4]diazepin-2-yl)amino)-N-(4-(7-(2-(2,6-dioxopiperidin-3-yl)-1-oxoisoindolin-4-yl)-2,7-diazaspiro[3.5]nonan-2-yl)piperidin-1-yl)-3-methoxybenzamide]		< 50 nM	++ (++<0.6)	

Source: patent publication US20250114460A1, “NOVEL PLK1 DEGRADATION INDUCING COMPOUND” (UPPTHERA, INC., priority 2021, published 2025)
